Reference: patent publication US7862815B2, “Methods for inhibiting angiogenesis with inhibitors of proadrenomedullin N-terminal 20 peptide (PAMP)” (The United States of America as represented by the …, priority 2002, dated 2011)

Key:
human endothelial cells [1] = experiment: Real-time PCR quantification of gene expression; format: cell-based; details: for expression of the AM/PAMP gene: addition of 10 nM peptide
Procedure: Human endothelial cells were cultured in T-75 flasks at a density of 2.5×10^6 cells/well. After the cells were attached to the bottom of the plate, they were treated with 10 nM PAMP in serum-free medium for 24 hours. At the end of this exposure, the cells were washed once with PBS, scraped from the plate and their total RNA was extracted using the RNeasy Mini Kit from Qiagen and reverse transcribed using the SuperScript First-Strand Synthesis system (Invitrogen). Quantification of gene expression was performed by real-time PCR as described (Martinez et al., J. Endocrinol. 176, 95-102, 2003). The PCR reaction was run in an Opticon cycler (MJ Research) using Sybr Green PCR master mix (Applied Biosystems). Thermocycling was performed in a final volume of 25 μl containing 2 μl of cDNA (1:10 dilution) and 400 nM of primers (see below). All targets were amplified in triplicates in the same run as the house-keeping gene, using the following cycle scheme: after initial denaturation of the samples at 95° C. for 2 minutes, 46 cycles of 95° C. for 30 seconds, 60° C. for 30 seconds, and 72° C. for 30 seconds were performed.
Fluorescence was measured in every cycle and mRNA levels were normalized by the 18S RNA values in all samples. A melting curve was run after PCR by increasing temperature from 50° C. to 96° C. (0.5° C. increments). A single peak was obtained for all amplicons, thus confirming the specificity of the reaction.

[2] = system: human microvascular endothelial cells; experiment: Proliferation assay (MTT); format: cell-based; details: three days; for endothelial cell proliferation over the control: 10^−8 M, serum-free medium, p<0.001
Procedure: The same microvascular endothelial cells were seeded in 96-well plates at a density of 2.0×10^5 cells per well in serum-free medium containing different concentrations of the test peptides. After three days in culture, the number of viable cells per well was estimated by the MTT assay as reported (Iwai et al., Lung Cancer 23, 209-222, 1999). Results are represented as percentage growth over the untreated control.

human endothelial cells [3] = experiment: Migration assay (ChemoTx chamber); format: cell-based; details: for increase in migration: 10^−11 M, four hour incubation, p<0.001; for concentration of peak of migration stimulation: lower and higher concentrations less efficient
Procedure: Cell motility was measured as described (Martinez et al., J. Natl. Cancer Inst., 21; 94(16):1226-37, 2002). Test peptides were placed at various concentrations at the bottom of a ChemoTx chamber (NeuroProbe Inc.). The intermediate membrane was coated with 10 μg/ml fibronectin, and in the upper chamber 5.0×10^5 human endothelial cells were added. After a four hour incubation at 37° C., the membrane was fixed and stained (Protocol Hema3, Biochemical Sciences Inc.). The cells trapped in the porous membrane were photographed through a 25× microscope objective and the number of cells per photographic field was counted.

athymic nude mice = experiment: DIVAA with angioreactors, Example 2 (peptides in matrigel); format: in vivo; details: for concentration range at which angiogenesis begins: equimolar comparison, FIG. 4G
Procedure: Analysis and quantitation of angiogenesis was done using DIVAA as previously described (Martinez et al., J. Natl. Cancer Inst., 21; 94(16):1226-37, 2002; Guedez et al., Am. J. Pathol. 162, 1431-1439, 2003). Briefly, 10 mm long surgical-grade silicone tubes with only one end open (angioreactors) were filled with 20 μl of matrigel alone or mixed with AM, bFGF, VEGF, PAMP, and/or PAMP(12-20) at the indicated concentrations. Human lung cancer cell lines (see below) were also premixed with matrigel alone or in combination with PAMP(12-20) at 10,000 cells per angioreactor. After the matrigel solidified, the angioreactors were implanted into the dorsal flanks of anesthetized athymic nude mice (NCI colony). After eleven days, the mice were injected intravenously with 25 mg/ml FITC-dextran (100 μl/mouse, Sigma) 20 minutes before removing the angioreactors. Photographs of the implants were taken for visual examination of angiogenic response. Quantitation of neovascularization in the angioreactors was determined as the amount of fluorescence trapped in the implants and was measured in a HP Spectrophotometer (Perkin Elmer).
To further characterize this observation, an […] assay was employed that allows for more precise quantitation of angiogenic properties: the directed […] angiogenesis assay or DIVAA (Martinez et al., J. Natl. Cancer Inst., 21; 94(16): 1226-37, 2002; Guédez et al., Am. J. Pathol. 162, 1431-1439, 2003). The assay involves implanting small silicone capsules carrying the test substances under the skin of nude mice. After eleven days, the mice are injected with a specific amount of FITC-dextran, and the volume of blood circulating through the implant is quantified by measuring the fluorescence in the capsule. In addition, the new blood vessels growing into the silicone tube can be seen directly by transparency (FIG. 4A-F). […] The extent of the angiogenic response can be seen clearly when this response is compared with the negative control (FIG. 4A). The angiogenic response elicited by PAMP was dose-dependent (FIG. 4C-G). When compared to AM and VEGF responses at equimolar concentrations, a clear difference was observed.

| Substance | expression of PDGF A mRNA (human endothelial cells [1]; 10 nM PAMP, 24 hours) | expression of PDGF B mRNA (human endothelial cells [1]; 10 nM PAMP, 24 hours) | expression of PDGF C mRNA (human endothelial cells [1]; 10 nM PAMP, 24 hours) | expression of VEGF mRNA (human endothelial cells [1]; 10 nM PAMP, 24 hours) | expression of bFGF mRNA (human endothelial cells [1]; 10 nM PAMP, 24 hours) | expression of AM gene mRNA (human endothelial cells [1]; 10 nM PAMP, 24 hours, normalized by 18S RNA) | endothelial cell growth ([2]; at the concentrations tested) | increase in migration (human endothelial cells [3]) | concentration of peak of migration stimulation (human endothelial cells [3]) | dose dependence of angiogenic response (athymic nude mice; FIG. 4C-G) | concentration range at which angiogenesis begins (athymic nude mice) | concentrations eliciting an angiogenic response (athymic nude mice; implants 11 days under the skin of nude mice) | expression of the AM/PAMP gene (human endothelial cells [1]) | endothelial cell proliferation over the control [2] | cell migration at other concentrations (human endothelial cells [3]; concentrations lower than 10^−11 M) | effect on cell migration (human endothelial cells [3]; on the concentration range tested) |
| --- | --- | --- | --- | --- | --- | --- | --- | --- | --- | --- | --- | --- | --- | --- | --- | --- |
| proadrenomedullin N-terminal 20 peptide (ARLDVASEFRKKWNKWALSR; listed as Homo sapiens) [PAMP, 20 amino-acid molecule originating from the post-translational processing of pre-proadrenomedullin; synthetic human, purchased from Bachem] | no significant modification | no significant modification | elevating the expression | elevating the expression | elevating the expression | about 50 % over basal levels | did not significantly modify cell growth | four-fold | 10^−11 M | dose-dependent | femtomolar range | ≥ 1 femtomols/L | – | – | – | – |
| vascular endothelial growth factor [VEGF] | – | – | – | – | – | – | – | four-fold | 10^−11 M | – | nanomolar concentrations | – | indistinguishable from the untreated controls | significantly increase proliferation | also induced a significant increase in cell migration | – |
| Adrenomedullin [AM] | – | – | – | – | – | – | – | – | – | – | nanomolar concentrations | – | indistinguishable from the untreated controls | significantly increase proliferation | – | did not modify cell migration significantly |
